Our source for the IC50, selectivity ratio and EC50 values is ChEMBL document CHEMBL1138701, “Anti-AIDS agents. Part 62: anti-HIV activity of 2'-substituted 4-methyl-3',4'-di-O-(-)-camphanoyl-(+)-cis-khellactone (4-methyl DCK) analogs” (Bioorg Med Chem Lett, 2004).

As a reminder, the IC50 is the point on the concentration scale where inhibition reaches its midpoint. A high value points to weaker potency in that assay. For orientation: EC50 means the midpoint of the concentration-response curve. Read a high EC50 as a need for much substance.

For data set [1], the system named is H9. Description: Concentration required to inhibit 50% growth of uninfected H9 cells. Type of data set: functional, cell-based. As to conditions: Homo sapiens.
Data set [2] in a line: Therapeutic index expressed as ratio of IC50 for 50% growth inhibition to EC50 for 50% replication inhibition. The class given is cell-based. As to conditions: human, H9 cells; read-out: TI.
Data set [3] concerns Human immunodeficiency virus. As to the kind of experiment: Concentration required to inhibit 50% of HIV (human immunodeficiency virus) replication. Type of data set: functional, organism-based. Conditions: Human immunodeficiency virus 1.

In turn, `Cc1cn([C@H]2C[C@H](N=[N+]=[N-])[C@@H](CO)O2)c(=O)[nH]c1=O` [ZIDOVUDINE] showed an IC50 in data set [1] of 1870 µM. Besides, in data set [2], the selectivity ratio came to 39000. This compound showed an EC50 in data set [3] of 0.04 µM.
With `Cc1cc(=O)oc2c3c(ccc12)OC[C@H](OC(=O)C12CCC(C)(C(=O)O1)C2(C)C)[C@@H]3OC(=O)C12CCC(C)(C(=O)O1)C2(C)C` (stereo partly specified), the IC50 in data set [1] is over 41.1 µM. Moreover, the selectivity ratio in data set [2] was over 6. In addition, the EC50 in data set [3] was found to be 6.9 µM.
Take `CC1(C)Oc2ccc3ccc(=O)oc3c2[C@@H](OC(=O)C23CCC(C)(C(=O)O2)C3(C)C)[C@H]1OC(=O)C12CCC(C)(C(=O)O1)C2(C)C` (stereo partly specified): in data set [1], the IC50 was over 16.1 µM. In addition, the selectivity ratio in data set [2] is over 328. The EC50 in data set [3] turned out to be 0.049 µM.
Consider `CCCC1(C)Oc2ccc3c(C)cc(=O)oc3c2[C@@H](OC(=O)C23CCC(C)(C(=O)O2)C3(C)C)[C@H]1OC(=O)C12CCC(C)(C(=O)O1)C2(C)C` (stereo partly specified), for which the IC50 in data set [1] is over 37.6 µM. Besides, the selectivity ratio in data set [2] is over 5.9. The same compound registered an EC50 in data set [3] of 6.4 µM.
In the same order, the values of `Cc1cc(=O)oc2c3c(ccc12)OC(C)(C)[C@H](OC(=O)C12CCC(C)(C(=O)O1)C2(C)C)[C@@H]3OC(=O)C12CCC(C)(C(=O)O1)C2(C)C` (stereo partly specified) are over 38.9 µM, over 6600 and 0.0059 µM.
In the same order, the values of `CCC1(C)Oc2ccc3c(C)cc(=O)oc3c2[C@@H](OC(=O)C23CCC(C)(C(=O)O2)C3(C)C)[C@H]1OC(=O)C12CCC(C)(C(=O)O1)C2(C)C` (stereo partly specified) are over 38.4 µM, over 175 and 0.22 µM.
Take `CCC1(CC)Oc2ccc3c(C)cc(=O)oc3c2[C@@H](OC(=O)C23CCC(C)(C(=O)O2)C3(C)C)[C@H]1OC(=O)C12CCC(C)(C(=O)O1)C2(C)C` (stereo partly specified): the IC50 in data set [1] is over 37.6 µM. Further, the selectivity ratio in data set [2] was over 13.2. In data set [3], it took 2.84 µM to reach a half-maximal effect (EC50).
